Results on nine molecules are retold here after patent US20220204539A1, “CD73 INHIBITORS” (BioArdis LLC, priority 2019, published 2022).

As a reminder, the IC50 is the concentration that inhibits the measured activity by half.

Test [1] concerns the target T1, Recombinant Human 5′-Nucleotidase (CD73) (Homo sapiens, UniProt P21589).
T1 construct: CHO derived CD73 (Trp27-Lys547), with a C-terminal 6-His tag; 6-His (C); purchased R&D 5795-EN; host or cells: CHO
T1 sequence (P21589 27-547): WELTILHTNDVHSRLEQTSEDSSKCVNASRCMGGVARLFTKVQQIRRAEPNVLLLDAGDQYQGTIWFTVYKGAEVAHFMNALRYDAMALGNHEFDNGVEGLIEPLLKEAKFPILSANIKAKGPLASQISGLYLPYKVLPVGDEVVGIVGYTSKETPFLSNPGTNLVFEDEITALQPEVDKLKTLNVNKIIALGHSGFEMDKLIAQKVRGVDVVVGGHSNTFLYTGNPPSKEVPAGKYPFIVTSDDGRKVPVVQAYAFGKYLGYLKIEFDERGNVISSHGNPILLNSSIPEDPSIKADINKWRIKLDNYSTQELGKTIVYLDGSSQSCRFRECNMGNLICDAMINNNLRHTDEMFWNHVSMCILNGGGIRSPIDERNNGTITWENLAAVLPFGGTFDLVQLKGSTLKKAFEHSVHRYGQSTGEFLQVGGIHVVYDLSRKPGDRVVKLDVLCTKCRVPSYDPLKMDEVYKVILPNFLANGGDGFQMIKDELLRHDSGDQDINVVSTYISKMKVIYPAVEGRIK
The test is described as follows: CD73 Enzyme Assay. Particulars: human CD73 0.5 nM, AMP 30 μM, PiColorLock phosphate detection; read-out: Potency (IC50, CD73 enzyme assay). The test is classed as biochemical. From the text:
Soluble recombinant CD73 catalyzes the conversion of adenosine monophosphate (AMP) to adenosine and inorganic phosphate. The phosphate detection reagent, PiColorLock™ (Innova Bioscience, Cat #303-0125) is based on the change in absorbance of the dye malachite green in the presence of inorganic phosphate (Pi) and this property can be exploited to measure any enzyme that generates Pi. Recombinant Human 5′-Nucleotidase (CD73) (R&D #5795-EN, CHO derived CD73 (Trp27-Lys547), with a C-terminal 6-His tag) was used in the enzymatic assay. This assay was run in a 384-well plate format (Corning® NBS™ 384 well plates, Cat #3640). The basic assay procedure involves two steps: 1) Enzyme reaction: The CD73 enzyme (R&D #5795-EN) is incubated in the presence or absence of compounds. AMP (sigma, cat #01930) is added to start the […] reaction. 2) Detection step: Gold mix is added to the assay system, then stabilizers are added. After incubation the absorbance of the solution is read at OD 635 nm. The recorded OD signal is proportional to the enzyme activity.
Briefly, 25 μl human CD73 (0.5 nM final concentration) in the enzymatic buffer solutions (20 mM Tris, 25 mM NaCl, 1 mM MgCl2, pH 7.5, 0.005% Tween-20) were mixed with various concentrations of the test compound (dissolved in 100% DMSO). These solutions were incubated for 15 min at 25° C., and subsequently 25 μl AMP (30 μM final concentration) was added to start the reaction. The final reaction mixture of enzyme-substrate-compound was incubated for 20 min at 37° C. Meanwhile ‘Gold mix’ was prepared shortly before use by adding 1/100 vol. of accelerator to the PiColorLock™ Gold reagent. 12 μL/well of the ‘Gold mix’ was added to assay plate containing 50 μL enzyme reaction buffer and incubated at 25° C. for 5 min. 5 μL/well stabilizer was added to the assay plate and incubated at 25° C. for 30 min. The absorbance of the well solutions was measured at 635 nm on a Spark 10M instrument (TECAN).
The percent (%) inhibition at each concentration of a compound was calculated relative to the OD value in the Max and Min control wells contained within each assay plate. The Max control wells contained enzyme and substrate as 0% inhibition, and the M control wells only contained substrate without enzyme as 100% inhibition. The concentrations and percent inhibition values for a test compound are plotted and the concentration of the compound required to achieve 50% inhibition (IC50) was determined with a four-parameter logistic dose response equation.

Test [2] concerns the target T2, Cell surface CD73 of U87 MG human glioblastoma cells (Homo sapiens, UniProt P21589).
T2 construct: Cell surface CD73 catalyzes the conversion of adenosine monophosphate (AMP) to adenosine and inorganic phosphate; endogenous in cells; host or cells: U87 MG human glioblastoma cells
T2 sequence (P21589 27-549): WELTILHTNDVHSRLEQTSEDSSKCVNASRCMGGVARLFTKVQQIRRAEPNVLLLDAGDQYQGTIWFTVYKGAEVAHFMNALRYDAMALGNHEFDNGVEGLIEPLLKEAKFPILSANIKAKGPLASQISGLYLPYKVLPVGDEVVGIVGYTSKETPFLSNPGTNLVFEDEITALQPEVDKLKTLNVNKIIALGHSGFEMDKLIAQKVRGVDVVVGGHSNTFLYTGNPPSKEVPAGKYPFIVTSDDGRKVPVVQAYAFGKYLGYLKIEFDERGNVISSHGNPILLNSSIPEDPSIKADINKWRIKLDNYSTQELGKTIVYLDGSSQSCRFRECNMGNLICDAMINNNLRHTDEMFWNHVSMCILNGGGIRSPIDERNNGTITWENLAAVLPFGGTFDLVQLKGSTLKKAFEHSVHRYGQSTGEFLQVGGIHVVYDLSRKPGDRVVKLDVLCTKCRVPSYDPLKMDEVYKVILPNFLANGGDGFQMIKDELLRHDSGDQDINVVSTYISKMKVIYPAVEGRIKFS
The test is described as follows: CD73 Cellular Assay. The class given is cell-based. Particulars: 5000 cells per well, 30 μM AMP substrate, read-out: Potency (IC50, CD73 cellular assay). The protocol: Cell surface CD73 catalyzes the conversion of adenosine monophosphate (AMP) to adenosine and inorganic phosphate. U87 MG human glioblastoma cells express high level of CD73. Cells are treated with compounds in a 96-well assay plate and supernatants are collected into a 384-well detection plate. The concentration of inorganic phosphate (Pi) in the supernatants is determined using the phosphate detection reagent, PiColorLock™ (Innova Bioscience, Cat #303-0125) following the manufacturer's instructions.
Briefly, on the day of the assay, U87 MG cells were harvested and resuspended in assay buffer which consisted of 20 mM HEPES, pH=7.4, 137 mM NaCl, 5.4 mM KCl, 1.3 mM CaCl2, 4.2 mM NaHCO3 and 0.1% glucose. To test the effect of compounds on cellular CD73 enzymatic activity, 500 nL/well of compounds dissolved in DMSO were added to a 96-well TC-treated microplate (Corning #3599). Next, 80 μL/well of U87 MG cells in assay buffer were added to assay plate. After 30 minutes of incubation in an atmosphere of 5% CO2 at 37° C., 20 μL/well of 150 μM AMP (Adenosine 5′-monophosphate monohydrate, Sigma, Cat #01930) in assay buffer was added to assay plate. Final assay conditions consisted of 5000 cells per well in 0.5% DMSO and 30 μM AMP substrate. After 50 minutes of incubation in an atmosphere of 5% CO2 at 37° C., 50 μL/well of supernatant was transferred to the 384-well detection plate (Corning® NBS™ 384 well plates, Cat #3640). Meanwhile “Gold mix” was prepared shortly before use by adding 1/100 volume of accelerator to the PiColorLock™ Gold reagent. 12 μL/well of the “Gold mix” was added to detection plate containing 50 μL/well of supernatant and incubated at 25° C. for 5 minutes. 5 μL/well stabilizer was added to the detection plate and incubated at 25° C. for 30 minutes. The absorbance at 635 nm was measured on a Spark 10M instrument (TECAN). The percent (%) inhibition at each concentration of a compound was calculated relative to the OD value in the Max and Min control wells contained within each assay plate. The Max control wells contained cells and substrate as 0% inhibition, and the Min control wells only contained cells as 100% inhibition. The concentrations and percent inhibition values for a test compound are plotted and the concentration of a the compound required to achieve 50% inhibition (IC50) was determined with a four-parameter logistic dose response equation.

As for `O=P(O)(O)CP(=O)(O)OC[C@H]1O[C@@H](c2cnc3c(N4CCCC[C@H]4c4ccccc4)nc(Cl)nn23)[C@H](O)[C@@H]1O` [Compound 56, (((((2R,3S,4R,1S)-5-(2-chloro-4-((S)-2-phenylpiperidin-1-yl)imidazo[2,1-f][1,2,4]triazin-7-yl)-3,4-dihydroxytetrahydrofuran-2-yl)methoxy)(hydroxy)phosphoryl)methyl)phosphonic Acid], the IC50 in test [1] was < 10 nM; in test [2] it was < 1 nM.

As to `C[C@H](Nc1nc(Cl)nn2c([C@@H]3O[C@H](COP(=O)(O)CP(=O)(O)O)[C@@H](O)[C@H]3O)cnc12)c1ccc(F)cc1` [Compound 37, (((((2R,3S,4R,1S)-5-(2-chloro-4-(((S)-1-(4-fluorophenyl)ethyl)amino)imidazo[2,1-f][1,2,4]triazin-7-yl)-3,4-dihydroxytetrahydrofuran-2-yl)methoxy)(hydroxy)phosphoryl)methyl)phosphonic Acid], the IC50 is < 10 nM in test [1] and < 1 nM in test [2].

Regarding `C[C@H](Nc1nc(Cl)nn2c([C@@H]3O[C@H](COP(=O)(O)CP(=O)(O)O)[C@@H](O)[C@H]3O)cnc12)c1cccc(F)c1` [Compound 36, (((((2R,3S,4R,5S)-5-(2-chloro-4-(((S)-1-(3-fluorophenyl)ethyl)amino)imidazo[2,1-f][1,2,4]triazin-7-yl)-3,4-dihydroxytetrahydrofuran-2-yl)methoxy)(hydroxy)phosphoryl)methyl) phosphonic acid], the results for the IC50 in test [1] and in test [2] were < 10 nM and < 1 nM, respectively.

Consider `C[C@H](Nc1nc(Cl)nn2c([C@@H]3O[C@H](COP(=O)(O)CP(=O)(O)O)[C@@H](O)[C@H]3O)cnc12)c1ccccc1F` [Compound 32, (((((2R,3S,4R,1S)-5-(2-chloro-4-(((S)-1-(2-fluorophenyl)ethyl)amino)imidazo[2,1-f][1,2,4]triazin-7-yl)-3,4-dihydroxytetrahydrofuran-2-yl)methoxy)(hydroxy)phosphoryl)-methyl)phosphonic Acid], for which the results for the IC50 in test [1] and in test [2] were < 10 nM and < 1 nM, respectively.

Consider `C[C@H](Nc1nc(Cl)nn2c(C3O[C@H](COP(=O)(O)CP(=O)(O)O)[C@@H](O)[C@@H]3F)cnc12)c1ccccc1F` (stereo partly drawn) [Compound 74, (((((2R,3R,4S)-5-(2-chloro-4-(((S)-1-(2-fluorophenyl)ethyl)amino)imidazo[2,1-f][1,2,4]triazin-7-yl)-4-fluoro-3-hydroxytetrahydrofuran-2-yl)methoxy)(hydroxy)phosphoryl)methyl)phosphonic Acid], for which the IC50 in test [1] lay within 10 to 99 nM; in test [2], 10 to 99.9 nM.

Consider `O=P(O)(O)CP(=O)(O)OC[C@H]1O[C@@H](c2cnc3c(N[C@H]4CCOC4)nc(Cl)nn23)[C@H](O)[C@@H]1O` [Compound 21, [({[(2R,3S,4R,5S)-5-{2-chloro-4-[(3S)-oxolan-3-ylamino]imidazo[2,1-f][1,2,4]triazin-7-yl}-3,4-dihydroxyoxolan-2-yl]methoxy}(hydroxy)phosphoryl)methyl]phosphonic Acid], for which the values for the 50% inhibitory concentration (IC50) in test [1] and in test [2] were < 10 nM and < 1 nM, respectively.

Take `O=P(O)(O)CP(=O)(O)OC[C@H]1O[C@@H](c2cnc3c(N4CCC(F)(F)C4)nc(Cl)nn23)[C@H](O)[C@@H]1O` [Compound 46, [({[(2R,3S,4R,5S)-5-[2-chloro-4-(3,3-difluoropyrrolidin-1-yl)imidazo[2,1-f][1,2,4]triazin-7-yl]-3,4-dihydroxyoxolan-2-yl]methoxy}(hydroxy)phosphoryl)methyl]phosphonic Acid]: the IC50 is < 10 nM in test [1] and < 1 nM in test [2].

On to `O=P(O)(O)CP(=O)(O)OC[C@H]1O[C@@H](c2cnc3c(N4CCOCC4)nc(Cl)nn23)[C@H](O)[C@@H]1O` [Compound 42, (((((2R,3S,4R,5S)-5-(2-chloro-4-morpholinoimidazo[2,1-f][1,2,4]triazin-7-yl)-3,4-dihydroxytetrahydrofuran-2-yl)methoxyxhydroxy)phosphoryl)methyl)phosphonic acid], for which the IC50 in test [1] is < 10 nM; in test [2] it was < 1 nM.

Turning to `CC(C)[C@@H]1CCCN1c1nc(Cl)nn2c([C@@H]3O[C@H](COP(=O)(O)CP(=O)(O)O)[C@@H](O)[C@H]3O)cnc12` [Compound 39, (((((2R,3S,4R,1S)-5-(2-chloro-4-((S)-2-isopropylpyrrolidin-1-yl)imidazo[2,1-f][1,2,4]triazin-7-yl)-3,4-dihydroxytetrahydrofuran-2-yl)methoxy)(hydroxy)phosphoryl)methyl)phosphonic acid], the IC50 in test [1] is < 10 nM; in test [2], < 1 nM.
